# Laboratory results published in PMC9552147 (Nature Communications, 2022).
# “And” between values parts separate entries of the source, which are not always exact repeats. Identical values can stand only once.
# Tested on: M. tuberculosis resistant mutant (lysS S491 insertion)
# Type: cell-based, Mycobacterium tuberculosis
Structure (SMILES),Mutant (S491)MIC,"Mutant (S491)MIC, Ave [µM]",fold resistance of the resistant mutant strain compared to wild-type H37Rv (MIC)
Nc1cc2c(c(F)n1)C(=O)N(C1CCCCC1)C2 [Compound 2],0.11 µM and 0.095 µM,0.10,–
NNC(=O)c1ccncc1 [isoniazid],–,–,equivalent sensitivity
